Assay results from patent publication US10301317B2, “Inhibitors of ERK and methods of use” (Kura Oncology, Inc., priority 2013, dated 2019).
pIC50: −log10 of the molar value.

tested on: A375 cells; assay: Tumor cell line proliferation assay (CellTiter Glo), A375; assay type: cell-based; details: Homo sapiens, A-375, 96 h, read-out: A375 (V599E) Cell Proliferation IC50

pIC50	SMILES
6.00 to 6.60	Cc1cc(-c2n[nH]c3cc4c(cc23)CN([C@@H]2CN(CC(F)(F)F)C[C@H]2c2ccccc2)C(=O)N4)cc(C)n1 [Example 242]
≥ 6.60	Cc1cc(-c2n[nH]c3cc4c(cc23)CN(C2CCC2)C(=O)N4)ccn1 [Example 243]
≥ 6.60	Cc1cc(-c2n[nH]c3cc4c(cc23)CN([C@@H]2CCCN(CC(F)(F)F)C2)C(=O)N4)cc(C)n1 [Example 244]
≥ 6.60	Cc1cc(-c2n[nH]c3cc4c(cc23)CN([C@@H]2CCCN(Cc3ccc(C)s3)C2)C(=O)N4)ccn1 [Example 245]
≥ 6.60	Cc1cc(-c2n[nH]c3cc4c(cc23)CN([C@@H]2CCCN(Cc3csc(C)c3)C2)C(=O)N4)ccn1 [Example 251]
≥ 6.60	Cc1cc(-c2n[nH]c3cc4c(cc23)CN([C@@H]2CCCN(Cc3ccsc3)C2)C(=O)N4)ccn1 [Example 252]
≥ 6.60	Cc1cc(-c2n[nH]c3cc4c(cc23)CN([C@@H]2CCCN(Cc3cccs3)C2)C(=O)N4)ccn1 [Example 254]
< 6.00	Cc1cc(-c2n[nH]c3cc4c(cc23)CN([C@@H]2CCN(c3ccc(F)cn3)C2)C(=O)N4)ccn1 [Example 257]
≥ 6.60	Cc1cc(-c2n[nH]c3cc4c(cc23)CN([C@H]2CN(Cc3ccccc3)CC(F)(F)C2)C(=O)N4)ccn1 [Example 264]
≥ 6.60	Cc1cc(-c2n[nH]c3cc4c(cc23)CN([C@@H]2CCN(C(C)C(F)(F)F)C2)C(=O)N4)ccn1 (stereo partly drawn) [Example 267]
≥ 6.60	C=C(c1ccccc1)c1cc2cc3c(-c4ccnc(C)c4)n[nH]c3cc2[nH]c1=O [Example 269]
≥ 6.60	COc1cc(-c2n[nH]c3cc4c(cc23)CN([C@@H]2CCCN(Cc3ccccc3)C2)C(=O)N4)ccn1 [Example 270]
≥ 6.60	COc1cc(-c2n[nH]c3cc4c(cc23)CN([C@@H]2CCCN(Cc3ccc(F)cc3F)C2)C(=O)N4)ccn1 [Example 271]
≥ 6.60	COc1ccc(-c2n[nH]c3cc4c(cc23)CN([C@@H]2CCCN(Cc3ccccc3)C2)C(=O)N4)cn1 [Example 272]
≥ 6.60	COc1ccc(-c2n[nH]c3cc4c(cc23)CN([C@@H]2CCCN(Cc3ccc(F)cc3F)C2)C(=O)N4)cn1 [Example 273]
≥ 6.60	Cc1ccc(-c2n[nH]c3cc4c(cc23)CN([C@@H]2CCCN(Cc3ccccc3)C2)C(=O)N4)cn1 [Example 275]
≥ 6.60	COc1ncc(-c2n[nH]c3cc4c(cc23)CN([C@@H]2CCCN(Cc3ccc(F)cc3F)C2)C(=O)N4)cn1 [Example 280]
≥ 6.60	Cn1cc(-c2n[nH]c3cc4c(cc23)CN([C@@H]2CCCN(Cc3ccc(F)cc3F)C2)C(=O)N4)cn1 [Example 281]
≥ 6.60	Cc1ccc(-c2n[nH]c3cc4c(cc23)CN([C@@H]2CCCN(Cc3ccc(F)cc3F)C2)C(=O)N4)cn1 [Example 284]
≥ 6.60	Cn1cc(-c2n[nH]c3cc4c(cc23)CN([C@@H]2CCCN(Cc3ccccc3)C2)C(=O)N4)cn1 [Example 285]
≥ 6.60	Cc1cc(-c2n[nH]c3cc4c(cc23)CN([C@@H]2CCCN(Cc3sccc3F)C2)C(=O)N4)ccn1 [Example 291]
≥ 6.60	Cc1ncc(-c2n[nH]c3cc4c(cc23)CN([C@@H]2CCCN(Cc3ccccc3)C2)C(=O)N4)cn1 [Example 292]
≥ 6.60	Cc1ncc(-c2n[nH]c3cc4c(cc23)CN([C@@H]2CCCN(Cc3ccc(F)cc3F)C2)C(=O)N4)cn1 [Example 293]
6.00 to 6.60	Cc1cc(-c2n[nH]c3cc4c(cc23)CN([C@H]2CCN(Cc3ccccc3)C2)C(=O)N4)ccn1 [Example 301]
≥ 6.60	CC(c1ccccc1)c1cc2cc3c(-c4ccnc(N5CCN(C)CC5)c4)n[nH]c3cc2[nH]c1=O (stereo not drawn) [Example 318]
6.00 to 6.60	COc1ncc(-c2n[nH]c3cc4c(cc23)CN(C2CN(Cc3ccccc3)CC(F)(F)C2)C(=O)N4)cn1 (stereo not drawn) [Example 320]
6.00 to 6.60	CC(c1ccccc1)c1cc2cc3c(-c4ccnnc4)n[nH]c3cc2[nH]c1=O (stereo not drawn) [Example 323]
≥ 6.60	CC(c1ccccc1)c1cc2cc3c(-c4ccc(N5CCOCC5)nc4)n[nH]c3cc2[nH]c1=O (stereo not drawn) [Example 324]
≥ 6.60	CC(c1ccccc1)c1cc2cc3c(-c4ccnc(N5CCOCC5)c4)n[nH]c3cc2[nH]c1=O (stereo not drawn) [Example 325]
≥ 6.60	CC(c1ccccc1)c1cc2cc3c(-c4ccncc4)n[nH]c3cc2[nH]c1=O (stereo not drawn) [Example 326]

tested on: phospho-p90 RSK (RSK1 Thr359/Ser363) in A375 (Braf V600E) cells; assay: Phospho-p90 RSK ELISA using A375 (Braf V600E) cells; assay type: cell-based; details: Homo sapiens, A-375, 2 hours compound treatment, read-out: Cellular Phospho-p90RSK IC50

pIC50	SMILES
≥ 6.60	Cc1cc(-c2n[nH]c3cc4c(cc23)CN([C@@H]2CN(CC(F)(F)F)C[C@H]2c2ccccc2)C(=O)N4)cc(C)n1 [Example 242]
≥ 6.60	Cc1cc(-c2n[nH]c3cc4c(cc23)CN(C2CCC2)C(=O)N4)ccn1 [Example 243]
≥ 6.60	Cc1cc(-c2n[nH]c3cc4c(cc23)CN([C@@H]2CCCN(CC(F)(F)F)C2)C(=O)N4)cc(C)n1 [Example 244]
≥ 6.60	Cc1cc(-c2n[nH]c3cc4c(cc23)CN([C@@H]2CCCN(Cc3ccc(C)s3)C2)C(=O)N4)ccn1 [Example 245]
≥ 6.60	Cc1cc(-c2n[nH]c3cc4c(cc23)CN([C@@H]2CCCN(Cc3csc(C)c3)C2)C(=O)N4)ccn1 [Example 251]
≥ 6.60	Cc1cc(-c2n[nH]c3cc4c(cc23)CN([C@@H]2CCCN(Cc3ccsc3)C2)C(=O)N4)ccn1 [Example 252]
≥ 6.60	Cc1cc(-c2n[nH]c3cc4c(cc23)CN([C@@H]2CCCN(Cc3cccs3)C2)C(=O)N4)ccn1 [Example 254]
6.00 to 6.60	Cc1cc(-c2n[nH]c3cc4c(cc23)CN([C@@H]2CCN(c3ccc(F)cn3)C2)C(=O)N4)ccn1 [Example 257]
≥ 6.60	Cc1cc(-c2n[nH]c3cc4c(cc23)CN([C@H]2CN(Cc3ccccc3)CC(F)(F)C2)C(=O)N4)ccn1 [Example 264]
≥ 6.60	Cc1cc(-c2n[nH]c3cc4c(cc23)CN([C@@H]2CCN(C(C)C(F)(F)F)C2)C(=O)N4)ccn1 (stereo partly drawn) [Example 267]
≥ 6.60	C=C(c1ccccc1)c1cc2cc3c(-c4ccnc(C)c4)n[nH]c3cc2[nH]c1=O [Example 269]
≥ 6.60	COc1cc(-c2n[nH]c3cc4c(cc23)CN([C@@H]2CCCN(Cc3ccccc3)C2)C(=O)N4)ccn1 [Example 270]
≥ 6.60	COc1cc(-c2n[nH]c3cc4c(cc23)CN([C@@H]2CCCN(Cc3ccc(F)cc3F)C2)C(=O)N4)ccn1 [Example 271]
≥ 6.60	COc1ccc(-c2n[nH]c3cc4c(cc23)CN([C@@H]2CCCN(Cc3ccccc3)C2)C(=O)N4)cn1 [Example 272]
≥ 6.60	COc1ccc(-c2n[nH]c3cc4c(cc23)CN([C@@H]2CCCN(Cc3ccc(F)cc3F)C2)C(=O)N4)cn1 [Example 273]
≥ 6.60	Cc1ccc(-c2n[nH]c3cc4c(cc23)CN([C@@H]2CCCN(Cc3ccccc3)C2)C(=O)N4)cn1 [Example 275]
≥ 6.60	COc1ncc(-c2n[nH]c3cc4c(cc23)CN([C@@H]2CCCN(Cc3ccc(F)cc3F)C2)C(=O)N4)cn1 [Example 280]
≥ 6.60	Cn1cc(-c2n[nH]c3cc4c(cc23)CN([C@@H]2CCCN(Cc3ccc(F)cc3F)C2)C(=O)N4)cn1 [Example 281]
≥ 6.60	Cc1ccc(-c2n[nH]c3cc4c(cc23)CN([C@@H]2CCCN(Cc3ccc(F)cc3F)C2)C(=O)N4)cn1 [Example 284]
≥ 6.60	Cn1cc(-c2n[nH]c3cc4c(cc23)CN([C@@H]2CCCN(Cc3ccccc3)C2)C(=O)N4)cn1 [Example 285]
≥ 6.60	Cc1cc(-c2n[nH]c3cc4c(cc23)CN([C@@H]2CCCN(Cc3sccc3F)C2)C(=O)N4)ccn1 [Example 291]
≥ 6.60	Cc1ncc(-c2n[nH]c3cc4c(cc23)CN([C@@H]2CCCN(Cc3ccccc3)C2)C(=O)N4)cn1 [Example 292]
≥ 6.60	Cc1ncc(-c2n[nH]c3cc4c(cc23)CN([C@@H]2CCCN(Cc3ccc(F)cc3F)C2)C(=O)N4)cn1 [Example 293]
≥ 6.60	Cc1cc(-c2n[nH]c3cc4c(cc23)CN([C@H]2CCN(Cc3ccccc3)C2)C(=O)N4)ccn1 [Example 301]
≥ 6.60	CC(c1ccccc1)c1cc2cc3c(-c4ccnc(N5CCN(C)CC5)c4)n[nH]c3cc2[nH]c1=O (stereo not drawn) [Example 318]
≥ 6.60	COc1ncc(-c2n[nH]c3cc4c(cc23)CN(C2CN(Cc3ccccc3)CC(F)(F)C2)C(=O)N4)cn1 (stereo not drawn) [Example 320]
≥ 6.60	CC(c1ccccc1)c1cc2cc3c(-c4ccnnc4)n[nH]c3cc2[nH]c1=O (stereo not drawn) [Example 323]
≥ 6.60	CC(c1ccccc1)c1cc2cc3c(-c4ccc(N5CCOCC5)nc4)n[nH]c3cc2[nH]c1=O (stereo not drawn) [Example 324]
≥ 6.60	CC(c1ccccc1)c1cc2cc3c(-c4ccnc(N5CCOCC5)c4)n[nH]c3cc2[nH]c1=O (stereo not drawn) [Example 325]
≥ 6.60	CC(c1ccccc1)c1cc2cc3c(-c4ccncc4)n[nH]c3cc2[nH]c1=O (stereo not drawn) [Example 326]
